pIC50: −log10 of the molar value.
Legend:
Format in all cases: cell-based
[1] = test system: leukaemic stem cell (LSC) compartment within the KG1a cell line; assay: Immunophenotypic identification of the leukaemic stem cell compartment; details: 72 h; for targeting of LSCs (LSC as percentage of all viable cells left in culture): FIG. 2-4; for preferential targeting of LSCs compared with the parent nucleoside: compound A at 1 mM and above
Method: KG1a cells were cultured for 72 h in the presence of a wide range of concentrations of each compound assayed. Cells were then harvested and labelled with a cocktail of anti-lineage antibodies (PE-cy7), anti-CD34 (FITC), anti-CD38 (PE) and anti-CD123 (PERCP cy5). The sub-population expressing a LSC phenotype were subsequently identified and were expressed as a percentage of all viable cells left in the culture. The percentages of stem cells remaining were then plotted on a dose-response graph and the effects of the compounds were compared with each other, and with the parent nucleoside.
The data obtained in these experiments were evaluated using one way ANOVA. All data was confirmed as Gaussian or a Gaussian approximation using the omnibus K2 test. LD50 values were calculated from the non-linear regression and line of best-fit analysis of the sigmoidal dose-response curves. All statistical analyses were performed using Graphpad Prism 6.0 software (Graphpad Software Inc., San Diego, CA).

CCRF-CEM = assay: CellTiterGlo cell viability assay, initial screening
Method: (§1) In vitro viability assays were performed to assess the effects of compounds on cell viability in 7 selected cell lines over 72 hr using the CellTiterGlo (CTG, Promega-G7573) assay. The tests were performed in duplicates with treatment of compounds at 9 points, 3.16 folds titration in 96 well plates over ˜72 hr. The compound starting concentrations were […]. Cell viability assay using CellTiterGlo in 96-well plate were performed. The compound treatment was 72 hrs, under standard growth conditions, and in duplicate. Compounds were dissolved to 40 mM with thawed […]. Compounds were serially diluted at 3.16 fold in thawed DMSO, and warmed to 37° C. before being dissolved in media (2 μl+200 μl). After compounds were dissolved in media (media was also warmed to 37° C.). Media containing compounds were warmed to 37° C. in incubator and then compounds in media were added to cell plates (50 μl+50 μl), in duplicates. The compounds final concentrations were from […] to 19.9 nM. All compound solubilities were checked and recorded again, then the plates were transferred to CO2 tissue culture incubator immediately and incubated for 3 days. DMSO final concentration is 0.5%.

HL-60 = assay: as above; details: for pIC50: Homo sapiens, HL-60, 72 h, read-out: IC50 (relative IC50)
Method: as §1

HepG2 = assay: as above; details: for M.I. %: maximum percentage inhibition of cell viability: HepG2, 72 hr, Table II
Method: as §1

K562 = assay: as above; details: 72 hr, Table II
Method: as §1

KG-1 = assay: as above
Method: as §1

MCF-7 = assay: as above; details: MCF-7; 72 hr; Table II
Method: as §1

MOLT-4 = assay: as above
Method: as §1

Compound | targeting of LSCs (LSC as percentage of all viable cells left in culture) [1] | preferential targeting of LSCs compared with the parent nucleoside [1] | M.I. %: maximum percentage inhibition of cell viability (HepG2) [%] | M.I. %: maximum percentage inhibition of cell viability (K562) [%] | M.I. %: maximum percentage inhibition of cell viability (MCF-7) [%] | M.I. %: maximum percentage inhibition of cell viability (CCRF-CEM; CCRF-CEM, 72 hr, Table II) [%] | M.I. %: maximum percentage inhibition of cell viability (HL-60; HL-60, 72 hr, Table II) [%] | M.I. %: maximum percentage inhibition of cell viability (KG-1; KG-1, 72 hr, Table II) [%] | M.I. %: maximum percentage inhibition of cell viability (MOLT-4; MOLT-4, 72 hr, Table II) [%] | further results
C[C@H](NP(=O)(OC[C@@H]1C[C@@H](O)[C@H](n2cnc3c(N)nc(F)nc32)O1)Oc1ccccc1)C(=O)OCc1ccccc1 (mixture of isomers) [P, (2S)-benzyl 2-(((((2S,4R,5R)-5-(6-amino-2-fluoro-9H-purin-9-yl)-4-hydroxytetrahydrofuran-2-yl)methoxy)(phenoxy)phosphoryl)amino)propanoate] | preferential targeting of LSCs | significantly improved when compared with the parental nucleoside | – | – | – | – | – | – | – | –
C[C@H](NP(=O)(N[C@@H](C)C(=O)OCc1ccccc1)OC[C@@H]1CC(O)[C@H](n2cnc3c(N)ncnc32)O1)C(=O)OCc1ccccc1 (stereo in doubt) [Compound J, Benzyl 2-[({[5-(6-amino-9H-purin-9-yl)-4-hydroxyoxolan-2-yl]methoxy}({[1-(benzyloxy)-1-oxopropan-2-yl]amino})phosphoryl)amino]propanoate] | – | – | 55 | 97 | 97 | – | – | – | – | M.I. %: maximum percentage inhibition of cell viability (CCRF-CEM; human, 72 h): 100%; M.I. %: maximum percentage inhibition of cell viability (HL-60; human, 72 h): 98%; M.I. %: maximum percentage inhibition of cell viability (KG-1; human, 72 h): 29%; M.I. %: maximum percentage inhibition of cell viability (MOLT-4; human, 72 h): 100%
C[C@H](NP(=O)(Oc1cccc2ccccc12)O[C@@H]1C[C@@H](CO)O[C@H]1n1cnc2c(N)ncnc21)C(=O)OCc1ccccc1 (stereo partly drawn) [Compound I, (2S)-benzyl 2-(((((2R,3R,5S)-2-(6-amino-9H-purin-9-yl)-5-(hydroxymethyl)tetrahydro-furan-3-yl)oxy)(naphthalen-1-yloxy)phosphoryl)amino)propanoate] | – | – | 90 | 87 | 99 | 99 | 99 | 93 | 100 | –
C[C@H](NP(=O)(OC[C@@H]1C[C@H](O)[C@H](n2cnc3c(N)nc(F)nc32)O1)Oc1cccc2ccccc12)C(=O)OCc1ccccc1 (stereo partly drawn) [Compound O] | able to bring about a reduction in the proportion of LSCs | not significantly different to 2-F-Cordycepin | – | – | – | – | – | – | – | –
CCCCCOC(=O)[C@H](CC(C)C)NP(=O)(OC[C@@H]1C[C@H](O)[C@H](n2cnc3c(N)nc(F)nc32)O1)Oc1cccc2ccccc12 (stereo partly drawn) [Compound Q, 2-Fluoro-3′-deoxyadenosine-5′-O-[1-naphthyhl(1-pentyloxy-L-leucinyl)]phosphate] | preferential targeting of LSCs | significantly improved when compared with the parental nucleoside | – | – | – | – | – | – | – | –
C[C@H](NP(=O)(Oc1ccccc1)O[C@@H]1C[C@@H](CO)O[C@H]1n1cnc2c(N)ncnc21)C(=O)OCc1ccccc1 (stereo partly drawn) [G, (2S)-benzyl 2-(((((2R,3R,5S)-2-(6-amino-9H-purin-9-yl)-5-(hydroxymethyl)tetrahydro-furan-3-yl)oxy)(phenoxy)phosphoryl)amino)propanoate] | – | – | 67 | 78 | 97 | 65 | 57 | 63 | 75 | pIC50 (HL-60): 4.00 to 4.82; pIC50 (HepG2; Homo sapiens, HepG2, 72 h, read-out: IC50 (relative IC50)): 4.00 to 4.82
C[C@H](NP(=O)(OC[C@@H]1C[C@@H](OP(=O)(N[C@@H](C)C(=O)OCc2ccccc2)Oc2ccccc2)[C@H](n2cnc3c(N)ncnc32)O1)Oc1ccccc1)C(=O)OCc1ccccc1 (stereo partly drawn) [H, Benzyl 2-(((((2S,4R,5R)-5-(6-amino-9H-purin-9-yl)-4-((((1-(benzyloxy)-1-oxopropan-2-yl)amino)(phenoxy)phosphoryl)oxy)tetrahydrofuran-2-yl)methoxy)(phenoxy)phosphoryl)-amino)propanoate] | – | – | 55 | 89 | 94 | 100 | 80 | 69 | 100 | pIC50 (HL-60): 4.00 to 4.82
CCCCCCOC(=O)[C@H](C)NP(=O)(OC[C@@H]1C[C@@H](O)[C@H](n2cnc3c(N)nc(F)nc32)O1)Oc1ccccc1 (stereo partly drawn) [R, (2S)-hexyl 2-(((((2S,4R,5R)-5-(6-amino-2-fluoro-9H-purin-9-yl)-4-hydroxytetrahydrofuran-2-yl)methoxy)(phenoxy)phosphoryl)amino)propanoate] | preferential targeting of LSCs | significantly improved when compared with the parental nucleoside | – | – | – | – | – | – | – | –
